Results published in patent US7482488B2, “Aryl and heteroaryl propene amides, derivatives thereof and therapeutic uses thereof” (Temple University - Of The Commonwealth System of Higher …, priority 2002, dated 2009).

How the values were obtained:
Format in all cases: cell-based, human
DLD1 (colorectal cancer) = assay: Effect on tumor cell lines: viable cell count by trypan blue exclusion, DLD1; conditions: DLD1 colorectal cancer cells; 100 nM to 10 μM; viable cells counted 96 hours after treatment
Method: (§1) The effect of the aromatic acrylamides on normal fibroblasts and on tumor cells was determined by the assay described by Latham et al.,Oncogene 12:827-837 (1996). Normal diploid lung human fibroblasts (HFL-1) or tumor cells (BT20(breast cancer), DLD1 (colorectal cancer), DU145 (prostate cancer and K562 (chronic myelogenous leukemia )) were plated in 6-well dishes at a cell density of 1.0 ×10^5cells per 35-mm^2 well. The plated cells were treated 24 hours later with a compound of the invention, dissolved in DMSO at multiple concentrations ranging from 100 nM to 10 μM. The total number of viable cells was determined 96 hours later by trypsinizing the wells and counting the number of viable cells, as determined by trypan blue exclusion, using a hemacytometer. Normal HFL cells were treated with the same compounds under the same conditions of concentration and time.
(§2) Representative examples of activities of compounds of the invention in cell lines: BT20(breast cancer), DLD1 (colorectal cancer), DU145 (prostate cancer and K562 (chronic myelogenous leukemia ) are listed in Table 5.

[1] = test system: K562 (chronic myelogenous leukemia); assay: Effect on tumor cell lines: viable cell count by trypan blue exclusion, K562; conditions: K562 chronic myelogenous leukemia cells; 100 nM to 10 μM; viable cells counted 96 hours after treatment
Method: as §1, §2

BT20 (breast cancer) = assay: Effect on tumor cell lines: viable cell count by trypan blue exclusion, BT20; conditions: BT20 breast cancer cells; 100 nM to 10 μM; viable cells counted 96 hours after treatment
Method: as §1, §2

DU145 (prostate cancer) = assay: Effect on tumor cell lines: viable cell count by trypan blue exclusion, DU145; conditions: DU145 prostate cancer cells; 100 nM to 10 μM; viable cells counted 96 hours after treatment
Method: as §1, §2

## COc1ccc(NC(=O)/C=C/c2cc(OC)c(OC)c(OC)c2)cc1N [Example 4, (E)-N-(4-Methoxy-3-aminophenyl)-3-(3,4,5-trimethoxyphenyl)-2-propenamide]
DLD1 (colorectal cancer)
  DLD1 activity: + (+ denotes activity at >10 μM)
[1]
  K562 activity: + (+ denotes activity at >10 μM)
BT20 (breast cancer)
  BT20 activity: + (+ denotes activity at >10 μM)
DU145 (prostate cancer)
  DU145 activity: + (+ denotes activity at >10 μM)

## N#Cc1cc(/C=C/C(=O)Nc2ccc(Br)cc2)ccc1F [Example 13, (E)-N-(4-Bromophenyl)-3-(3-cyano-4-fluorophenyl)-2-propenamide]
DLD1 (colorectal cancer)
  DLD1 activity: ++ (++ denotes activity at 10 μM)
[1]
  K562 activity: ++ (++ denotes activity at 10 μM)
BT20 (breast cancer)
  BT20 activity: ++ (++ denotes activity at 10 μM)
DU145 (prostate cancer)
  DU145 activity: ++ (++ denotes activity at 10 μM)

## COc1ccc(NC(=O)/C=C/c2c(OC)cccc2OC)cc1 [Example 2, (E)-N-(4-Methophenyl)-3-(2,6-dimethoxypheyl)-2-propenamide]
DLD1 (colorectal cancer)
  DLD1 activity: + (+ denotes activity at >10 μM)
[1]
  K562 activity: + (+ denotes activity at >10 μM)
BT20 (breast cancer)
  BT20 activity: + (+ denotes activity at >10 μM)
DU145 (prostate cancer)
  DU145 activity: + (+ denotes activity at >10 μM)

## COc1cc(/C=C/C(=O)Nc2ccc(Br)cc2)ccc1F [Example 12, (E)-N-(4-Bromophenyl)-3-(3-methoxy-4fluorophenyl)-2-propenamide]
DLD1 (colorectal cancer)
  DLD1 activity: ++ (++ denotes activity at 10 μM)
[1]
  K562 activity: ++ (++ denotes activity at 10 μM)
BT20 (breast cancer)
  BT20 activity: ++ (++ denotes activity at 10 μM)
DU145 (prostate cancer)
  DU145 activity: ++ (++ denotes activity at 10 μM)

## COc1ccc(NC(=O)/C=C/c2ccc(N)c(F)c2)cc1N [Example 9, (E)-N-(4-Methoxy-3-aminophenyl)-3-(3-fluoro-4-aminophenyl)-2-propenamide]
DLD1 (colorectal cancer)
  DLD1 activity: ++ (++ denotes activity at 10 μM)
[1]
  K562 activity: ++ (++ denotes activity at 10 μM)
BT20 (breast cancer)
  BT20 activity: ++ (++ denotes activity at 10 μM)
DU145 (prostate cancer)
  DU145 activity: ++ (++ denotes activity at 10 μM)

## COc1cc(OC)c(/C=C/C(=O)Nc2ccc(OC)c(NC(=O)C(F)(F)F)c2)c(OC)c1 [Example 10, (E)-N-(4-Methoxy-3-trifluoroacetamidophenyl)-3-(2,4,6-trimethoxyphenyl)-2-propenamide]
DLD1 (colorectal cancer)
  DLD1 activity: +++ (+++ denotes activity at 100 nM)
[1]
  K562 activity: +++ (+++ denotes activity at 100 nM)
BT20 (breast cancer)
  BT20 activity: +++ (+++ denotes activity at 100 nM)
DU145 (prostate cancer)
  DU145 activity: +++ (+++ denotes activity at 100 nM)

## COc1cc(OC)c(/C=C/C(=O)Nc2ccc(OC)c(N)c2)c(OC)c1 [Example 6, (E)-N-(4-methoxy-3-aminophenyl)-3-(2,4,6-trimethoxyphenyl)-2-propenamide]
DLD1 (colorectal cancer)
  DLD1 activity: +++ (+++ denotes activity at 100 nM)
[1]
  K562 activity: +++ (+++ denotes activity at 100 nM)
BT20 (breast cancer)
  BT20 activity: +++ (+++ denotes activity at 100 nM)
DU145 (prostate cancer)
  DU145 activity: +++ (+++ denotes activity at 100 nM)

## COc1cc(OC)c(/C=C/C(=O)Nc2ccc(OC)c(O)c2)c(OC)c1 [Example 11, (E)-N-(3-Hydoxy-4-methoxyphenyl)-3-(2,4,6-trimethoxyphenyl)-2-propenamide]
DLD1 (colorectal cancer)
  DLD1 activity: ++++ (++++ denotes activity at <100 nm)
[1]
  K562 activity: ++++ (++++ denotes activity at <100 nm)
BT20 (breast cancer)
  BT20 activity: ++++ (++++ denotes activity at <100 nm)
DU145 (prostate cancer)
  DU145 activity: ++++ (++++ denotes activity at <100 nm)

## COc1ccc(NC(=O)/C=C/c2c(OC)cc(OC)cc2OC)cc1 [Example 1, (E)-N-(4-Methoxyphenyl)-3-(2,4,6-trimethoxyphenyl)-2-propen-amide]
DLD1 (colorectal cancer)
  DLD1 activity: +++ (+++ denotes activity at 100 nM)
[1]
  K562 activity: +++ (+++ denotes activity at 100 nM)
BT20 (breast cancer)
  BT20 activity: +++ (+++ denotes activity at 100 nM)
DU145 (prostate cancer)
  DU145 activity: +++ (+++ denotes activity at 100 nM)

## COc1ccc(NC(=O)/C=C/c2c(F)c(F)c(F)c(F)c2F)cc1[N+](=O)[O-] [Example 7, (E)-N-(4-Methoxy-3-nitrophenyl)-3-(2,3,4,5,6-pentafluorophenyl)-2-propenamide]
DLD1 (colorectal cancer)
  DLD1 activity: ++ (++ denotes activity at 10 μM)
[1]
  K562 activity: ++ (++ denotes activity at 10 μM)
BT20 (breast cancer)
  BT20 activity: ++ (++ denotes activity at 10 μM)
DU145 (prostate cancer)
  DU145 activity: ++ (++ denotes activity at 10 μM)
